In data set [1] the test system is healthy subjects. Type of data set: in vivo, human. On the procedure:
Ten healthy subjects of both sexes, aged 18 through 43 were treated with DDAVP and 4-Asn-DDAVP.
One to two hours after a normal breakfast, the subjects were hydrated by drinking the volume of tap water that corresponded to 2% of their body weight. Every 15 minutes, urine was collected and its volume and osmolality were measured using an Advanced Osmometer Model 3D11. In order to overhydrate themselves, the subjects substituted their loss of fluid by drinking a volume of tap water that corresponded to the amount of urine collected. After about 40 to 45 minutes, the diuresis increased to about 200 milliliters per 15 minute period. At that time, DDAVP or 4-Asn-DDAVP in amounts of from 20 to 200 micrograms was administered perorally in 50 milliliters of distilled water. The DDAVP and 4-Asn-DDAVP were supplied by Ferring AB in lyophilized powder form which could easily be dissolved in water. The water diuresis was followed continually up to 6 hours.

Data set [2] relates to healthy subjects. Description: Water diuresis in overhydrated subjects after injection through a duodenal tube. As to conditions: 200 micrograms in 10 ml water through duodenal tube, two subjects. The data set is classed as in vivo, human. On the procedure: Two of the subjects were supplied with a duodenal tube which was inserted through the nose. The end of the tube was placed with the help of X-rays in the distal part of the duodenum. Overhydration and urine sampling were then carried out as described above. […] After this, 200 micrograms of DDAVP dissolved in 10 milliliters of water were injected through a tube.

The conditions of data set [3]: in vivo; cited from earlier work.

These results are taken from patent US5047398A, “DDAVP antidiuretic and method therefor” (Ferring B.V., priority 1983, dated 1991).

Where two headings read alike, the source gives them in different places.

In the case of “1-deamino-4-asparagine-8-D-arginine-vasopressin [Example 4-Asn-DDAVP]”, the “therapeutic (antidiuretic) effect” value in the data set with healthy subjects [1] (oral, dose of 100 micrograms) is recorded as “no therapeutic effect”. The antidiuretic effect entry with healthy subjects [1] (oral, doses 20 to 200 micrograms, effect only with the highest dose) is recorded as “only a moderate, extremely short-lived, effect”.

For `NC(=O)CC[C@@H]1NC(=O)[C@H](Cc2ccccc2)NC(=O)[C@H](Cc2ccc(O)cc2)NC(=O)CCSSC[C@@H](C(=O)N2CCC[C@H]2C(=O)N[C@H](CCCN=C(N)N)C(=O)NCC(N)=O)NC(=O)[C@H](CC(N)=O)NC1=O` [DDAVP, 1-deamino-8-D-arginine vasopressin], the “antidiuretic response with increase in osmolality and conductivity of urine” value in the data set with healthy subjects [2] is “immediate antidiuretic response”. For the same compound, the side-effects result with healthy subjects [1] (human, in vivo) is reported as “no side-effects were experienced”. Further, the “therapeutic (antidiuretic) effect” value in the data set with healthy subjects [1] (peroral, 20 microgram dosage) was “therapeutic effect was obtained”. Also, the “dose dependence of antidiuretic response (magnitude and duration)” value in the data set with healthy subjects [1] (peroral, 20 to 200 micrograms in 50 ml distilled water) is recorded as “dosedependent effect”. In addition, the “duration of antidiuretic effect” value in the data set on healthy subjects [1] (peroral, 20 to 200 micrograms, diuresis followed up to 6 hours) is on record as “at least 6 hours”. In addition, the antidiuretic activity entry in data set [3] is “high and specific antidiuretic activity”.
